The record followed here is US20060106102A1, “Napththalene derivatives which inhibit the cytokine or biological activity of microphage migration inhibitory factor (mif)” (priority 2002, published 2006).

Read-outs that look alike come from different tables or passages of the source. Bounds are passed on as bounds.

What is called EC50 is the concentration giving half of the maximal effect.

The subject of experiment [1] is IL-1-induced COX-2 expression. The experiment can be described thus: IL-1-induced COX-2 expression in S112 human dermal fibroblasts (MIF-dependent event), flow cytometry. Type of experiment: cell-based. The conditions noted are these: Homo sapiens, Fibroblast, IL-1 0.1 ng/ml, 6 hours, S112 cells, read-out: % inhibition of IL-1-induced COX2 expression (Effect). The method, then:
The activity of each compound was studied in a bioassay utilising MIF-dependent activation of human dermal fibroblasts. […] IL-1-induced COX-2 expression is therefore a MIF-dependent event. […] Prior to experimentation, cells were seeded at 10^5 cells/ml in RPMI/0.1% BSA for 18 hours. […] Cells permeabilised with 0.1% saponin were sequentially labelled with a mouse anti-human COX-2 monoclonal antibody and with sheep-anti-mouse F(ab)2 fragment labelled with fluoroscein isothiocyanate. Cellular fluorescence was determined using a flow cytometer. At least 5000 events were counted for each reading, each of which was performed in duplicate, and the results expressed in mean fluorescence intensity (MFI) after subtraction of negative control-labelled cell fluorescence. The effect of each compound was determined by subtracting the IL-1+compound-treated cell MFI from the IL-1-treated cell MFI and expressed as % inhibition. In each case the % inhibition of IL-1-induced COX2 expression is shown as the mean, or mean±SEM where results are available from multiple experiments.

In experiment [2] the test system is murine peritoneal macrophage nitric oxide production. The experiment can be described thus: murine peritoneal macrophage nitric oxide production (nitrite, Greiss assay). Type of experiment: cell-based, C57BL6/J mice. The conditions noted are these: Mus musculus, LPS 10 ng/ml and interferon-γ 10 units/ml, 24 hours, read-out: % Nitrite concentration inhibition from control. The procedure:
C57BL6/J male mice were injected intraperitoneally with 2ml of thioglycollate. Five (5) days later peritoneal macrophages were collected by ravaging the peritoneum of anaesthetized mice with 3 ml of cold Hanks buffered saline solution. Cells from several mice were pooled, washed and re-suspended in DMEM supplemented with 5% FCS. Cells were plated in 96 well plastic tissue culture plates at 1×10^5 cells/well. Cells were treated with compound or vehicle for 1 hour in a 5% CO2 incubator at 37° C. Cells were then treated with LPS (10 ng/ml) and recombinant human interferon-γ (10 units/ml) and incubated for 24 hours. After 24 hours, 50 μl of supernatant from each well was carefully removed and transferred to ELISA plates. The concentration of nitrite in culture supernatants was measured by the Greiss assay (41). The results were defined as the percentage inhibition of nitrite concentration in compound-treated cell culture supernatants compared to that of vehicle-treated cells.

The test system of experiment [3] is antigen-specific T cell activation (splenic T lymphocytes from mBSA-immunised mice). The experiment can be described thus: antigen-specific (mBSA) activation of splenic T lymphocytes in vitro, 3H-thymidine incorporation. The following applies: for EC50: Mus musculus, T-cell, read-out: EC50 (T cell activation suppressed by 50% compared to vehicle-only-treated cells). Type of experiment: cell-based, C57BL6/J mice. The procedure:
After a further seven (7) days mice were killed and spleens collected aseptically into Hanks buffered saline solution (HBSS). A single cell suspension was prepared in Petri dishes by flushing DMEM through the organ using a 26G needle and 2 mL syringe. The resulting cell suspension was centrifuged for 5-7 minutes and supernatant discarded. Erythrocytes were lysed using a solution containing 0.579% NH4Cl, 0.000037% EDTA, and 0.1% NaHCO3 in a 37° C. water bath. Tubes were then filled with DMEM and centrifuged for 5-7 minutes. […] The specific stimulating antigen, mBSA, was then added at 10-50 μg/mL and plates incubated for 30 hours in a 37° C., 5% CO2 incubator. Tritiated^3H-thymidine was then added at a concentration of 0.5 μCi/well for a further 18 hours. Cells were harvested on a Packard cell harvester, and the harvested material added to 750 μL/tube scintillation fluid. Scintillation counts were read on a Wallac beta-emnission counter. […] Further compounds were also tested for their ability to inhibit antigen-specific T cell activation as a marker of the inhibition of the cytokine or biological activity of MIF using this assay.
On the technique in general: Uptake of a labelled nucleoside into DNA is a usual measure of proliferation.

In experiment [4] the test system is rat adjuvant-induced arthritis (AIA) model. The experiment can be described thus: rat adjuvant-induced arthritis (AIA) model. The conditions noted are these: 1.0 mg/kg once daily intraperitoneal. Format: in vivo, Sprague-Dawley rats. The procedure:
The activity of each compound was studied in the rat adjuvant-induced arthritis (AIA) model of rheumatoid arthritis. […] Male Sprague-Dawley rats (150±20 g) were used. Adjuvant artritis was induced by intradermal injection at the tail base of […] of a 10 mg/ml suspension of heat-inactivated Mycobacterium tuberculosis (Difco, Detroit, Mich.) in squalane. The compound was administered at a dose of 1.0 mg/kg body weight by once daily intraperitoneal injection on each day (treated). Control animals received an identical volume injection of vehicle (control). Joint inflammation in adjuvant arthritis was assessed clinically as follows: • i) Articular index/score: A score of 0 (no observable erythema or swelling) to 4 (severe swelling and erythema) was given for each paw. All four paws were scored, resulting in a maximum possible score of 16 for each animal (34). • ii) Synovial fluid cell number: Joints were exposed by removal of overlying skin, needle arthrocentesis performed and joint space cells obtained by closed needle lavage with 2 ml saline using a 26 gauge needle and syringe. Lavaged cells from both ankle joints were pooled, washed in saline (300 g for 5 minutes), and counted in a hemocytometer (Improved Nebauer, Weber, UK) (34).

Experiment [5] relates to murine endotoxic shock model (LPS). The experiment can be described thus: murine endotoxic shock model, serum cytokines by ELISA. The following applies: mice. Type of experiment: in vivo. The method, then:
The activity of 6,7-dihydroxynaphthalene-3-sulfonic acid (compound 6) was studied in the murine endotoxic shock model. This model has been previously shown to be dependent on MIF (35). […] Endotoxaemia was induced by intra-peritoneal injection of lipopolysaccharide (LPS) (15 mg/kg) in 400 μl saline. Mice were treated with a saline solution (control) only, a saline solution and LPS, or LPS and 6,7-dihydroxynaphthalene-2-sulfonic acid (compound 6) at a dose of 15 mg/kg body weight by intra-peritoneal injection at 24 hours, 12 hours and 1 hour before intra-peritoneal LPS injection. After 1.5 or 6 hours mice were humanely killed by CO2 inhalation then neck dislocation. Serum was obtained from blood obtained by cardiac puncture prior to death and measured for cytokines including interleukin 1 (IL-1) and interleukin 6 (IL-6) by ELISA. The production of IL-1 and IL-6 has been previously shown to be dependent on MIF (36).
The effect of compounds was further tested under a variety of conditions in animals exposed to endotoxic shock induced as above by the injection of 15 mg/kg LPS by intraperitoneal injection. In each case, compounds were administered by intraperitoneal injection at a dose of 15 mg/kg. Compound administration was associated with reductions in serum cytokine concentration under a variety of administration regimens.
In general terms: ELISA stands for enzyme-linked immunosorbent assay.

Experiment [6] has as its system murine antigen-induced arthritis. The experiment can be described thus: murine antigen-induced arthritis, histological score. Type of experiment: in vivo, C57BL6/J mice. The following applies: 15 mg/kg i.p. once per 24 hours; histology at day 28; mice. The method, then: Antigen-induced arthritis was induced in mice. C57BL6/J male mice, aged 7-10 weeks old, were immunized on day 0 with 200 μg methylated BSA (mBSA) emulsified in 200 μl of Freund's complete adjuvant (FCA) injected subcutaneously into the flank skin. Mice were treated with compound 5, administered by intraperitoneal injection, once per 24 hours at a dose of 15 mg/kg body weight. After seven days, mice received 100 μg “mBSA and 100 μl FCA by intradermal injection at the base of the tail. After a further 14 days, arthritis was induced by intra-articular injection of 30 μg mBSA in 10 μl of sterile saline into the left knee, the right knee being injected with sterile saline alone.
Arthritis was analysed histologically at day 28 after first immunisation. Knee joints were dissected and fixed in 10% buffered formalin for 7 days. Fixed tissues were decalcified for 3 weeks in 15% ethylene-diamine-tetra-acetic acid (EDTA), dehydrated and embedded in paraffin. Sagittal sections (5 μm) of the knee joint were stained with Safranin-O and counterstained with fast green /iron hematoxylin. Histological sections were scored from 0 to 3 for four parameters: Synovitis was defined as hyper-cellularity of the synovium including pannus formation. Joint space exudate was identified as leukocytes, discretely or in aggregates, in the joint space. […]

For experiment [7], the system named is recombinant human macrophage migration inhibitory factor (MIF)-induced proliferation of S112 human dermal fibroblasts. The experiment can be described thus: MIF-induced proliferation of S112 human dermal fibroblasts, 3H-thymidine incorporation. Format: cell-based. The conditions noted are these: Homo sapiens, Fibroblast; concentration 0.013 μM; rhMIF 50 ng/ml; S112 cells; read-out: % inhibition of proliferation compared to vehicle plus rhMIF-treated cells. The procedure: The activity of each compound was studied in a bioassay utilising MIF-induced proliferation of human dermal fibroblasts. S112 human dermal fibroblasts were propagated in RPMI/10% foetal calf serum (FCS). Prior to experimentation, cells were seeded at 10^5 cells/ml in RPMI/0.1% BSA for 18 hours. At time point zero, culture medium was replaced with RPMI/10% FCS and treatments administered. Cells were treated with recombinant human macrophage migration inhibitory factor (MIF) 50 ng/ml (1.353×10^−9 M) and/or the compound at a 1 or 1000 molar ratio to the concentration of MIF. In some experiments the compound was combined with MIF at time point −30 minutes, prior to adding at time point zero. At time point 30 hours, cells were pulsed with […]. At time point 48 hours, cells were harvested using a semi-automated cell harvester. The radioactivity incorporated into DNA was determined by liquid scintillation counting, with results expressed as [^3H] thymidine incorporation. The proliferation of untreated cells was expressed as 100% and the effect of MIF and each compound expressed in relative %.
The activity of compound 5 was studied in a bioassay utilising MIF-induced proliferation of human dermal fibroblasts. S112 human dermal fibroblasts were propagated in RPMI/10% foetal calf serum (FCS). Prior to experimentation, cells were seeded at 10^5 cells/ml in RPMII/0.1% BSA for 18 hours. At time point zero, culture medium was replaced with RPMI/10% FCS and treatments administered. Cells were treated with recombinant human macrophage migration inhibitory factor (MIF) 50 ng/ml and/or compound 5 at a 1-1000 molar ratio to the concentration of MIF. At a time point 30 hours later, cells were pulsed with 1 μCi/well of ^3H-thymidine. At a time point 48 hours after commencement of the experiment, cells were harvested using a semi-automated cell harvester. The radioactivity incorporated into DNA was determined by liquid scintillation counting, with results expressed as [^3H] thymidine incorporation.

`COc1cc2ccccc2cc1OC` [Compound 2, 6,7-dimethoxynaphthalene]: in experiment [1] (compound 0.1 uM), the inhibition at 0.1 µM turned out to be 11.6%. Besides, in experiment [2] (25 uM), the inhibition at 25 µM is 5.8%. Moreover, the inhibition at 50 µM in experiment [2] (50 uM) came out at 8.5%. In experiment [2] (100 uM), the inhibition at 100 µM was 13.6%. For the same compound, the values for the EC50 in experiment [3] (mBSA 10 μg/ml) and in experiment [3] (mBSA 50 μg/ml) were 18.1 µM and 52 µM, respectively. In addition, in experiment [4], the “arthritis severity (articular index, synovial fluid cell number; FIGS. 5 and 6)” value is “significant inhibition of arthritis severity”.

Take `O=C(O)c1ccc2c([N+](=O)[O-])c(O)ccc2c1` [Compound 23, 6-hydroxy-5-nitro-2-napthoic acid]: in experiment [1] (compound 10 uM), the inhibition at 10 µM was 8%. The EC50 in experiment [3] (mBSA 10 μg/ml) is more than 100 µM. Besides, in experiment [3] (mBSA 50 μg/ml), the EC50 was more than 100 µM. In addition, in experiment [3] (increasing concentrations, mBSA 50 μg/mL), the “effect on antigen-specific T cell activation (FIG. 10)” value was “dose-dependent and statistically significant inhibitory effect”. For the same compound, in experiment [5] (compound 15 mg/kg i.p. at −16 h before LPS 15 mg/kg i.p.), the “serum IL-1, LPS plus compound” value is 58 ± 13 ng/mL. In experiment [6], the “individual parameters of arthritis (synovitis, joint space exudate, cartilage degradation, bone damage; FIG. 11b)” value is on record as “Clinically significant reductions in the severity of all individual parameters of arthritis” and the “total arthritis score (FIG. 11a)” value is “clinically significant reduction in total arthritis score”.

In the case of `O=S(=O)(O)c1ccc2cc(O)ccc2c1` [Compound 24, 6-Hydroxy-2-naphthalene-sulfonic acid], the inhibition at 0.013 µM in experiment [7] worked out at 18%. Also, in experiment [1] (compound 1 uM), the inhibition at 1 µM came out at 8.2%. Further, the “Serum IL-6, LPS plus compound” value in experiment [5] (compound 15 mg/kg i.p. at −24 h, −1 h before LPS 15 mg/kg i.p.) was 144 ± 18 ng/mL.
